Values of other authors in patent US20130004575A1, “CONTROLLED RELEASE FORMULATIONS USING INTELLIGENT POLYMERS” (VALEANT INTERNATIONAL (BARBADOS) SRL, priority 1997, published 2013).

Settings: room temperature

CC1(C)O[C@@H]2[C@@H](CO[C@@]3(COS(N)(=O)=O)OC(C)(C)O[C@@H]23)O1 [topiramate, 2,3:4,5-bis-O-(1-methylethylidene)-β-D-fructopyranose sulfamate]
solubility of topiramate in water: about 9.8 mg/mL
